From patent US8293786B2 (Alltranz Inc., priority 2007, dated 2012)

Legend:
human abdominal skin = test: In vitro human skin permeation and skin disposition, flow-through diffusion cells (Examples 2, 2A, 2B); assay type: in vitro ADME; details: for 30 h cumulative amt / 30 h skin conc / Flux / Lag time / Flux enhancement / 24 h cumulative amt / 24 h skin conc: 40% aqueous PEG 400 receiver fluid; for Flux enhancement: total cannabidiol versus cannabidiol
In short: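 Dermatomed (~200 μm) frozen human abdominal skin was mounted in flow-through cells at 32° C (0.95 cm^2), stratum corneum to donor. Donors were 0.10 mL 45:4:1 PG:H2O:IPM solution or 50 μL gel; receiver was 40% PEG 400 (HEPES-Hanks pH 7.4 or aqueous) with gentamicin at 0.8 mL/h. Samples were taken every 3 h for 24-42 h; skin accumulation was expressed as μmol/g wet tissue.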

[1] = Plasma stability of cannabidiol prodrugs (bioconversion to parent drug); assay type: in vitro ADME; details: for % mono-prodrug at time (h) / % Di-prodrug at time (h): di-prodrug in plasma; for % mono-prodrug at time (h): mono-prodrug formed; for % Prodrug at time (h): mono-prodrug in plasma
Protocol: An approximated 1 mg/mL stock solution of each prodrug was prepared in 100 μL of ethanol and 900 μL of acetonitrile. Ten (10) μL of stock was spiked into 1 mL of plasma and vortexed. The samples were kept sealed in an amber vial and samples were obtained to analyze for bioconversion to parent drug.

[2] = Table 18, 90:8:2 PG:H2O:IPM donor solution, CBD from applied prodrug
[3] = Table 18, 90:8:2 PG:H2O:IPM donor solution, as applied compound (CBD or intact prodrug)
[4] = Table 18, 90:8:2 PG:H2O:IPM donor solution, mono-prodrug from applied di-prodrug
[5] = Table 18, 90:8:2 PG:H2O:IPM donor solution, prodrug applied, as total cannabidiol equivalents
[6] = Table 23, gel formulation, as applied compound (CBD or intact prodrug)
[7] = Table 23, gel formulation, mono-prodrug (ALL00149) from applied di-prodrug
[8] = Table 23, gel formulation, prodrug applied, as total cannabidiol equivalents
[9] = Table 23, gel formulation, CBD from applied prodrug

C=C(C)[C@@H]1CCC(C)=C[C@H]1c1c(OC(=O)CO)cc(CCCCC)cc1OC(=O)CO [ALL00147, CBD Diglycolate]
30 h cumulative amt (human abdominal skin; [2]): 8.2 ± 7.0 nmol | 30 h skin conc (human abdominal skin; [2]): 3.9 ± 0.8 µmol/g | Flux (human abdominal skin; [2]): 0.7 ± 0.6 nmol/cm^2/h | Lag time (human abdominal skin; [2]): 16.7 ± 0.7 h | 30 h cumulative amt (human abdominal skin; [3]): 11.7 ± 3.8 nmol | 30 h skin conc (human abdominal skin; [3]): 6.3 ± 5.6 µmol/g | Flux (human abdominal skin; [3]): 0.7 ± 0.01 nmol/cm^2/h | Lag time (human abdominal skin; [3]): 13.0 ± 5.9 h | 30 h cumulative amt (human abdominal skin; [4]): 9.1 ± 0.2 nmol | 30 h skin conc (human abdominal skin; [4]): 7.1 ± 6.3 µmol/g | Flux (human abdominal skin; [4]): 0.6 ± 0.2 nmol/cm^2/h | Lag time (human abdominal skin; [4]): 11.8 ± 5.9 h | 30 h cumulative amt (human abdominal skin; [5]): 29.0 ± 3.4 nmol | 30 h skin conc (human abdominal skin; [5]): 17.3 ± 12.6 µmol/g | Flux (human abdominal skin; [5]): 1.9 ± 0.8 nmol/cm^2/h | Lag time (human abdominal skin; [5]): 13.3 ± 5.0 h | Flux enhancement (human abdominal skin; Table 18, 90:8:2 PG:H2O:IPM donor solution): 0.24 | 24 h cumulative amt (human abdominal skin; [6]): 0.9 nmol | 24 h skin conc (human abdominal skin; [6]): 0.8 ± 0.7 µmol/g | 24 h cumulative amt (human abdominal skin; [7]): 5.7 nmol | 24 h skin conc (human abdominal skin; [7]): 8.7 ± 6.6 µmol/g | Flux (human abdominal skin; [7]): 0.25 nmol/cm^2/h | 24 h cumulative amt (human abdominal skin; [8]): 12.5 nmol | 24 h skin conc (human abdominal skin; [8]): 9.5 ± 7.3 µmol/g | Flux (human abdominal skin; [8]): 0.58 nmol/cm^2/h | Flux enhancement (human abdominal skin; Table 23, gel formulation): 2.0 | detected in the skin as (human abdominal skin; in donor solution): prodrug, mono-substituted prodrug, ALL00149, and cannabidiol | flux compared to cannabidiol (human abdominal skin; in donor solution): did not increase the flux | lag time compared to cannabidiol (human abdominal skin; in donor solution): not decreased | permeated through the skin as (human abdominal skin; in donor solution): intact prodrug, mono-substituted prodrug (ALL00149), and cannabidiol | total skin concentrations compared to cannabidiol (human abdominal skin; in donor solution): not higher | detected in the skin as (human abdominal skin; in gel formulation): primarily as mono-prodrug, ALL00149 with a trace amount of ALL00147 | increase of the flux compared to cannabidiol (human abdominal skin; in gel formulation): 2 fold | share permeated through the skin as cannabidiol (human abdominal skin; in gel formulation): 47.2% | share permeated through the skin as intact di-prodrug (human abdominal skin; in gel formulation): 7.2% | share permeated through the skin as mono-prodrug (human abdominal skin; in gel formulation): 45.6% | total skin concentrations compared to cannabidiol (human abdominal skin; in gel formulation): weren't higher | % mono-prodrug at time (h) ([1]; Table 20, 0.5 h): 0% | % mono-prodrug at time (h) ([1]; Table 20, 2 h): 0% | % mono-prodrug at time (h) ([1]; Table 20, 22 h): 0% | % mono-prodrug at time (h) ([1]; Table 20, 24 h): 0% | % Di-prodrug at time (h) ([1]; Table 20, 0 h): 100% | % Di-prodrug at time (h) ([1]; Table 20, 0.5 h): 55% | % Di-prodrug at time (h) ([1]; Table 20, 2 h): 32% | % Di-prodrug at time (h) ([1]; Table 20, 22 h): 13% | % Di-prodrug at time (h) ([1]; Table 20, 24 h): 12% | % mono-prodrug at time (h) ([1]; Table 24, 0 h): 3% | % mono-prodrug at time (h) ([1]; Table 24, 0.5 h): 37% | % mono-prodrug at time (h) ([1]; Table 24, 1 h): 10% | % mono-prodrug at time (h) ([1]; Table 24, 2 h): 2% | % Di-prodrug at time (h) ([1]; Table 24, 0 h): 97% | % Di-prodrug at time (h) ([1]; Table 24, 0.5 h): 0% | % Di-prodrug at time (h) ([1]; Table 24, 1 h): 0% | % Di-prodrug at time (h) ([1]; Table 24, 2 h): 0%

C=C(C)[C@@H]1CCC(C)=C[C@H]1c1c(O)cc(CCCCC)cc1OC(=O)CO [ALL00149, CBD Glycolate]
24 h cumulative amt (human abdominal skin; [9]): 1.2 nmol | 24 h skin conc (human abdominal skin; [9]): 0.9 ± 0.0 µmol/g | 24 h cumulative amt (human abdominal skin; [6]): 5.8 nmol | 24 h skin conc (human abdominal skin; [6]): 46.0 ± 11.5 µmol/g | Flux (human abdominal skin; [6]): 0.29 nmol/cm^2/h | Lag time (human abdominal skin; [6]): 6.4 h | 24 h cumulative amt (human abdominal skin; [8]): 6.9 nmol | 24 h skin conc (human abdominal skin; [8]): 46.3 ± 11.8 µmol/g | Flux (human abdominal skin; [8]): 0.40 nmol/cm^2/h | Lag time (human abdominal skin; [8]): 6.2 h | Flux enhancement (human abdominal skin; Table 23, gel formulation): 1.4 | detected in the skin as (human abdominal skin; in gel formulation): primarily ALL00149 with a trace amount of cannabidiol | lag time compared to cannabidiol (human abdominal skin; in gel formulation): lower | permeated through the skin as (human abdominal skin; in gel formulation): primarily ALL00149 with a trace amount of cannabidiol | total skin concentrations compared to cannabidiol (human abdominal skin; in gel formulation): higher | increase of the flux compared to cannabidiol (human abdominal skin; in gel formulation, unit not given): 1.4 | % Prodrug at time (h) ([1]; Table 24, 0 h): 100% | % Prodrug at time (h) ([1]; Table 24, 0.5 h): 31% | % Prodrug at time (h) ([1]; Table 24, 1 h): 12% | % Prodrug at time (h) ([1]; Table 24, 2 h): 0%
